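Assay format: 96-well plates, 48-hour exposure. TGI: concentration producing complete growth inhibition.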
Legend:
Assay in all cases: growth of human tumour cells (NCI), 48 h
[1] = test system: CAKI-1 renal
[2] = test system: CCRF-CEM leukemia
[3] = test system: DU-145 prostate
[4] = test system: HCC-2998 colon
[5] = test system: IGROV1 ovarian
[6] = test system: K-562 leukemia
[7] = test system: MALME-3M melanoma
[8] = test system: MDA-MB-231 breast
[9] = test system: NCI-H226 lung
[10] = test system: OVCAR-3 ovarian
[11] = test system: PC-3 prostate
[12] = test system: SF-268 CNS
[13] = test system: SK-MEL-2 melanoma
[14] = test system: SK-MEL-28 melanoma
[15] = test system: SK-MEL-5 melanoma
[16] = test system: SNB-75 CNS
[17] = test system: SW-620 colon
[18] = test system: T-47D breast
[19] = test system: UO-31 renal
[20] = test system: HOP-92 NSCLC

SMILES | TGI [1] [µM] | TGI [2] [µM] | TGI [3] [µM] | TGI [4] [µM] | TGI [5] [µM] | TGI [6] [µM] | TGI [7] [µM] | TGI [8] [µM] | TGI [9] [µM] | TGI [10] [µM] | TGI [11] [µM] | TGI [12] [µM] | TGI [13] [µM] | TGI [14] [µM] | TGI [15] [µM] | TGI [16] [µM] | TGI [17] [µM] | TGI [18] [µM] | TGI [19] [µM] | TGI [20] [µM]
CNC(=O)NCCN1CC2CCC(CC2)C1 | > 10 | > 10 | > 10 | > 10 | > 10 | > 10 | > 10 | > 10 | > 10 | > 10 | > 10 | > 10 | > 10 | > 10 | > 10 | > 10 | > 10 | > 10 | > 10 | 
CN(C)CCCNc1ncnc2c1ncn2C1OC(CO)C(O)C1O (stereo not drawn) | > 100 | > 100 | > 100 | > 100 | > 100 | > 100 | > 100 | > 100 | > 100 | > 100 | > 100 | > 100 | > 100 | > 100 | > 100 |  | > 100 | > 100 | > 100 | > 100
Cc1ccc(C(=O)Cn2c(C(=O)/C=C/c3cccs3)nc3ccccc32)cc1 |  | 38.5 | > 100 | 43.7 | > 100 | > 100 | > 100 | > 100 | > 100 | > 100 | > 100 | > 100 | 48.3 | > 100 | > 100 | > 100 | > 100 | > 100 | > 100 | > 100
CC(Oc1ccccc1Cl)C(=O)NN1C(=O)CC(=O)NC1=S (stereo not drawn) | > 100 |  | > 100 | > 100 | > 100 | > 100 | > 100 | > 100 | > 100 | > 100 | > 100 | > 100 | > 100 | > 100 | > 100 | > 100 | > 100 | > 100 | > 100 | > 100
O=C1/C(=C/c2ccco2)N=C2Sc3c(nc[nH]c3=O)N12 | > 100 | > 100 | > 100 |  | > 100 | > 100 | > 100 | > 100 | > 100 | > 100 | > 100 | > 100 | > 100 | > 100 | > 100 | > 100 | > 100 | > 100 | > 100 | > 100
O=C(CCCN1CCC2(CC1)CC(=O)N(N1CCOCC1)C2=O)c1ccc(F)cc1 | > 100 | > 100 | > 100 |  | > 100 | > 100 | > 100 | > 100 | > 100 | > 100 | > 100 | > 100 | > 100 | > 100 | > 100 | > 100 | > 100 | > 100 | > 100 | 
O=c1[nH]nc(Cc2ccccc2)n1CCCl | > 100 | > 100 | > 100 | > 100 | > 100 | > 100 | > 100 | > 100 | > 100 | > 100 | > 100 | > 100 | > 100 | > 100 |  | > 100 | > 100 | > 100 | > 100 | 
NNC(=O)CCSc1ccccc1 | > 100 | > 100 | > 100 | > 100 | > 100 | > 100 | > 100 | > 100 | > 100 | > 100 | > 100 | > 100 | > 100 | > 100 | > 100 | > 100 | > 100 | > 100 | > 100 | 
COc1ccc(-c2cc(-c3ccc(O)cc3O)c(C#N)c(=O)[nH]2)cc1 | 64.1 | 56.7 | > 100 |  |  | 77 | 70.4 | 36.8 | 55.3 | 48.6 | 35.4 | 73.5 |  | 33.5 | 34.6 |  | 50.3 | > 100 | 69.6 | 31
Cc1ccc(N=NC(=Nc2ccc(Cl)cc2)c2ccc(N(CCC#N)CCC#N)cc2)cc1 | > 100 | > 100 | > 100 | 90.1 | > 100 | > 100 |  | 81.8 | > 100 | > 100 | 92 | > 100 |  | > 100 | > 100 | > 100 | > 100 | > 100 | > 100 | > 100
CCOC(=O)c1cc2c3c(c(C(C)=O)c(O)c2[nH]1)N(C(C)=O)CC3 | > 100 | > 100 | > 100 |  | > 100 | > 100 | > 100 | > 100 | > 100 | > 100 | > 100 | > 100 | > 100 | > 100 | > 100 | > 100 | > 100 | > 100 | > 100 | 
C=C(C)[C@@]1(O)CCCC[C@@H]1CC(Sc1ccccc1)Sc1ccccc1 | 28.8 | > 100 | 30.1 | 32.4 | 33.6 | 44.4 | 26.2 | 38.7 | 32.1 |  | 34.8 | 31.1 | 30.1 | 38.6 | 29.5 | 30 |  | 29 | 31.5 | 18.9
CN(C)CCNC(=O)c1cccc2c(NC(CS)C(=O)O)c3ccccc3[n+](C)c12 (stereo not drawn) |  |  | > 100 | > 100 | > 100 | > 100 | > 100 | > 100 |  | > 100 | > 100 | 80.8 | > 100 | > 100 | > 100 | > 100 | > 100 | > 100 | > 100 | 
O=c1/c(=C/c2ccc([N+](=O)[O-])o2)sc2n1[C@@H](c1ccc(Cl)cc1)C=C(c1cc(F)c(Cl)cc1Cl)N=2 | > 100 | > 100 | 39.9 |  | 31.7 | 36.9 | 33.9 | 18.5 | 32.4 |  | 32.7 | 33.4 | 17.6 | > 100 | 28.8 | > 100 | > 100 | 52.7 | 32.5 | 28.5
O=C(OCc1ccc([N+](=O)[O-])cc1)N1c2ccccc2[C@@]23O[C@]24CCC[C@H]3C#C/C=C\C#C[C@H]14 | > 100 | > 100 | > 100 | > 100 | > 100 | > 100 | > 100 | > 100 | > 100 | > 100 | > 100 | > 100 | > 100 | > 100 | > 100 |  | > 100 | > 100 | > 100 | > 100
COC(=O)C1=C(OC(=O)c2ccccc2)C(C(=O)OC)[C@@]2(O)[C@@H](C(=O)OC)[C@H](C)C[C@@H]1[C@@H]2C(=O)OC (stereo partly drawn) | > 100 | > 100 | > 100 | 89.7 | > 100 |  | > 100 | > 100 | > 100 | > 100 | > 100 | > 100 | > 100 | > 100 | > 100 | > 100 | > 100 | > 100 | > 100 | 
O=C(CC(C(=O)c1cccs1)c1ccsc1)c1ccccc1 (stereo not drawn) | > 100 | > 100 | > 100 | > 100 | > 100 |  |  | 96.9 | > 100 | > 100 |  | > 100 |  | > 100 | > 100 | > 100 | > 100 | > 100 | > 100 | > 100
O=C(O)c1nc2ccc(C(F)(F)F)cc2nc1NCc1ccc(Cl)c(Cl)c1 | 36.9 | > 100 | 32.5 | 30.5 | 30.7 | 42.1 |  | 34.5 | 44.1 | 24.6 | 29.4 |  | 27.8 | 33.7 | 37.5 | 39.1 | 47.2 | 35.2 | 26.2 | 32.2
O=c1cc(CSc2c(-c3ccccc3)c(=O)n(-c3ccccc3)c(=S)n2-c2ccccc2)[nH]c(=O)[nH]1 | > 100 | > 100 | > 100 | > 100 | > 100 | > 100 |  | > 100 |  | > 100 | > 100 | > 100 | > 100 | > 100 | > 100 | > 100 | > 100 | > 100 | > 100 | 
CC1CC/C(=C\c2ccc(N(C)C)cc2)C2=C1C(c1ccc(N(C)C)cc1)NC(=S)N2 (stereo not drawn) | > 100 | > 100 | > 100 |  | > 100 | > 100 | > 100 | > 100 | > 100 | > 100 | > 100 | > 100 | > 100 | > 100 | > 100 | > 100 | > 100 | > 100 | > 100 | 
CCN(CC)CCN(C(=Nc1ccccc1)N1CCCCC1)c1ccccc1 | > 100 | 46.5 | > 100 | 19.9 | 20.6 | 16.2 | 40.1 | 38.8 | 29.3 | 28.3 | 24.8 | > 100 | 37.7 | 46 | 17.6 |  | > 100 | 9.92 | 26.5 | 
CC1(C)C2CC(O)C1CCC2=O (stereo not drawn) | > 100 | > 100 | > 100 | > 100 |  | > 100 | > 100 | > 100 | > 100 | > 100 | > 100 | > 100 | > 100 | > 100 | > 100 | > 100 |  | > 100 | > 100 | 
CC1=NNC(=O)C1C1CC(c2c[nH]c3ccccc23)=NN(C(N)=O)C1=O (stereo not drawn) | > 100 | > 100 | > 100 |  | > 100 | > 100 | > 100 | > 100 | > 100 | > 100 | > 100 | > 100 | > 100 | > 100 | > 100 | > 100 | > 100 | > 100 | > 100 | > 100
N#Cc1ccc(N2CCOCC2)cc1 | > 100 | > 100 | > 100 |  | > 100 |  |  | > 100 |  | > 100 | > 100 | > 100 | > 100 | > 100 | > 100 | > 100 | > 100 | > 100 | > 100 | > 100
CC(=O)O[C@@H]1C(=O)N(c2ccccc2)[C@@H]1c1cc2ccccc2c2ccccc12 | 36.8 | > 100 | > 100 | 61.2 | 61.9 | > 100 | 88.9 | 75.1 | > 100 | 83.4 | > 100 | > 100 | 40.6 | > 100 | 59.4 |  |  | 85.7 | 87 | > 100
